Values after ≈ are worked out from the molar mass of the structure shown.
What follows are compounds tested on Streptococcus pneumoniae (assay: Antibacterial activity against Streptococcus pneumoniae by NCCLS method).
Format: functional
In the case of CC[C@H]1OC(=O)[C@H](C)[C@@H](OC(=O)Cc2ccc(F)cc2)[C@H](C)[C@@H](O[C@@H]2O[C@H](C)C[C@H](N(C)Cc3ccccc3)[C@H]2O)[C@](C)(OC)C[C@@H](C)C(=O)[C@H](C)[C@@H](O)[C@]1(C)O, the MIC is reported as 1 µg/mL (≈ 1.25 µM). In the case of CC[C@H]1OC(=O)[C@H](C)[C@@H](OC(=O)Cc2ccc([N+](=O)[O-])cc2)[C@H](C)[C@@H](O[C@@H]2O[C@H](C)C[C@H](N(C)CC)[C@H]2O)[C@](C)(OC)C[C@@H](C)C(=O)[C@H](C)[C@@H](O)[C@]1(C)O, the MIC is reported as 0.5 µg/mL (≈ 0.652 µM). For C#CCN(C)[C@H]1C[C@@H](C)O[C@@H](O[C@@H]2[C@@H](C)[C@H](OC(=O)Cc3cccc(F)c3)[C@@H](C)C(=O)O[C@H](CC)[C@@](C)(O)[C@H](O)[C@@H](C)C(=O)[C@H](C)C[C@@]2(C)OC)[C@@H]1O, the MIC was 2 µg/mL (≈ 2.67 µM). C#CCN(C)[C@H]1C[C@@H](C)O[C@@H](O[C@@H]2[C@@H](C)[C@H](OC(=O)Cc3cccc([N+](=O)[O-])c3)[C@@H](C)C(=O)O[C@H](CC)[C@@](C)(O)[C@H](O)[C@@H](C)C(=O)[C@H](C)C[C@@]2(C)OC)[C@@H]1O was tested, and the MIC was 1 µg/mL (≈ 1.29 µM). Work on CC[C@H]1OC(=O)[C@H](C)[C@@H](OC(=O)Cc2ccccc2F)[C@H](C)[C@@H](O[C@@H]2O[C@H](C)C[C@H](N(C)Cc3ccccc3)[C@H]2O)[C@](C)(OC)C[C@@H](C)C(=O)[C@H](C)[C@@H](O)[C@]1(C)O yielded an MIC of 0.5 µg/mL (≈ 0.623 µM). CC[C@H]1OC(=O)[C@H](C)[C@@H](OC(=O)Cc2cccc(F)c2)[C@H](C)[C@@H](O[C@@H]2O[C@H](C)C[C@H](N(C)Cc3ccccc3)[C@H]2O)[C@](C)(OC)C[C@@H](C)C(=O)[C@H](C)[C@@H](O)[C@]1(C)O gave an MIC of 1 µg/mL (≈ 1.25 µM). With C#CCN(C)[C@H]1C[C@@H](C)O[C@@H](O[C@@H]2[C@@H](C)[C@H](OC(=O)Cc3ccccc3[N+](=O)[O-])[C@@H](C)C(=O)O[C@H](CC)[C@@](C)(O)[C@H](O)[C@@H](C)C(=O)[C@H](C)C[C@@]2(C)OC)[C@@H]1O the MIC was 2 µg/mL (≈ 2.57 µM). CC[C@H]1OC(=O)[C@H](C)[C@@H](OC(=O)Cc2ccccn2)[C@H](C)[C@@H](O[C@@H]2O[C@H](C)C[C@H](N(C)CC3CC3)[C@H]2O)[C@](C)(OC)C[C@@H](C)C(=O)[C@H](C)[C@@H](O)[C@]1(C)O showed an MIC greater than 16 µg/mL. Work on C=CCN(C)[C@H]1C[C@@H](C)O[C@@H](O[C@@H]2[C@@H](C)[C@H](OC(=O)Cc3ccccn3)[C@@H](C)C(=O)O[C@H](CC)[C@@](C)(O)[C@H](O)[C@@H](C)C(=O)[C@H](C)C[C@@]2(C)OC)[C@@H]1O yielded an MIC of 0.25 µg/mL (≈ 0.34 µM). CC[C@H]1OC(=O)[C@H](C)[C@@H](OC(=O)Cc2cccc(F)c2)[C@H](C)[C@@H](O[C@@H]2O[C@H](C)C[C@H](N(C)C3CC3)[C@H]2O)[C@](C)(OC)C[C@@H](C)C(=O)[C@H](C)[C@@H](O)[C@]1(C)O showed an MIC greater than 16 µg/mL. CC[C@H]1OC(=O)[C@H](C)[C@@H](OC(=O)Cc2ccccc2[N+](=O)[O-])[C@H](C)[C@@H](O[C@@H]2O[C@H](C)C[C@H](N(C)CC3CC3)[C@H]2O)[C@](C)(OC)C[C@@H](C)C(=O)[C@H](C)[C@@H](O)[C@]1(C)O was tested, and the MIC was 1 µg/mL (≈ 1.26 µM). Compound C=CCN(C)[C@H]1C[C@@H](C)O[C@@H](O[C@@H]2[C@@H](C)[C@H](OC(=O)Cc3ccc(F)cc3)[C@@H](C)C(=O)O[C@H](CC)[C@@](C)(O)[C@H](O)[C@@H](C)C(=O)[C@H](C)C[C@@]2(C)OC)[C@@H]1O has an MIC of 0.5 µg/mL (≈ 0.665 µM). CC[C@H]1OC(=O)[C@H](C)[C@@H](OC(=O)Cc2ccc([N+](=O)[O-])cc2)[C@H](C)[C@@H](O[C@@H]2O[C@H](C)C[C@H](N(C)CC3CC3)[C@H]2O)[C@](C)(OC)C[C@@H](C)C(=O)[C@H](C)[C@@H](O)[C@]1(C)O gave an MIC of 1 µg/mL (≈ 1.26 µM). Work on CC[C@H]1OC(=O)[C@H](C)[C@@H](OC(=O)Cc2cccnc2)[C@H](C)[C@@H](O[C@@H]2O[C@H](C)C[C@H](N(C)Cc3ccccc3)[C@H]2O)[C@](C)(OC)C[C@@H](C)C(=O)[C@H](C)[C@@H](O)[C@]1(C)O yielded an MIC of 0.25 µg/mL (≈ 0.318 µM). Compound CC[C@H]1OC(=O)[C@H](C)[C@@H](OC(=O)Cc2cccc(F)c2)[C@H](C)[C@@H](O[C@@H]2O[C@H](C)C[C@H](N(C)CC3CC3)[C@H]2O)[C@](C)(OC)C[C@@H](C)C(=O)[C@H](C)[C@@H](O)[C@]1(C)O has an MIC of 8 µg/mL (≈ 10.4 µM). In the case of C=CCN(C)[C@H]1C[C@@H](C)O[C@@H](O[C@@H]2[C@@H](C)[C@H](OC(=O)Cc3ccccc3[N+](=O)[O-])[C@@H](C)C(=O)O[C@H](CC)[C@@](C)(O)[C@H](O)[C@@H](C)C(=O)[C@H](C)C[C@@]2(C)OC)[C@@H]1O, the MIC is reported as 0.25 µg/mL (≈ 0.321 µM). In the case of CC[C@H]1OC(=O)[C@H](C)[C@@H](OC(=O)Cc2ccncc2)[C@H](C)[C@@H](O[C@@H]2O[C@H](C)C[C@H](N(C)C3CC3)[C@H]2O)[C@](C)(OC)C[C@@H](C)C(=O)[C@H](C)[C@@H](O)[C@]1(C)O, the MIC is reported as greater than 32 µg/mL. C=CCN(C)[C@H]1C[C@@H](C)O[C@@H](O[C@@H]2[C@@H](C)[C@H](OC(=O)Cc3ccccc3F)[C@@H](C)C(=O)O[C@H](CC)[C@@](C)(O)[C@H](O)[C@@H](C)C(=O)[C@H](C)C[C@@]2(C)OC)[C@@H]1O was tested, and the MIC was 0.25 µg/mL (≈ 0.332 µM). With CC[C@H]1OC(=O)[C@H](C)[C@@H](OC(=O)Cc2cccc([N+](=O)[O-])c2)[C@H](C)[C@@H](O[C@@H]2O[C@H](C)C[C@H](N(C)C3CC3)[C@H]2O)[C@](C)(OC)C[C@@H](C)C(=O)[C@H](C)[C@@H](O)[C@]1(C)O the MIC was 16 µg/mL (≈ 20.5 µM). CC[C@H]1OC(=O)[C@H](C)[C@@H](OC(=O)Cc2ccccc2F)[C@H](C)[C@@H](O[C@@H]2O[C@H](C)C[C@H](N(C)CC3CC3)[C@H]2O)[C@](C)(OC)C[C@@H](C)C(=O)[C@H](C)[C@@H](O)[C@]1(C)O was tested, and the MIC was 8 µg/mL (≈ 10.4 µM). Compound C#CCN(C)[C@H]1C[C@@H](C)O[C@@H](O[C@@H]2[C@@H](C)[C@H](OC(=O)Cc3ccccn3)[C@@H](C)C(=O)O[C@H](CC)[C@@](C)(O)[C@H](O)[C@@H](C)C(=O)[C@H](C)C[C@@]2(C)OC)[C@@H]1O has an MIC of 4 µg/mL (≈ 5.46 µM). For C=CCN(C)[C@H]1C[C@@H](C)O[C@@H](O[C@@H]2[C@@H](C)[C@H](OC(=O)Cc3cccc(F)c3)[C@@H](C)C(=O)O[C@H](CC)[C@@](C)(O)[C@H](O)[C@@H](C)C(=O)[C@H](C)C[C@@]2(C)OC)[C@@H]1O, the MIC was 0.125 µg/mL (≈ 0.166 µM). For CC[C@H]1OC(=O)[C@H](C)[C@@H](OC(=O)Cc2ccccc2F)[C@H](C)[C@@H](O[C@@H]2O[C@H](C)C[C@H](N(C)CC)[C@H]2O)[C@](C)(OC)C[C@@H](C)C(=O)[C@H](C)[C@@H](O)[C@]1(C)O, the MIC was 0.25 µg/mL (≈ 0.338 µM). CC[C@H]1OC(=O)[C@H](C)[C@@H](OC(=O)Cc2ccccc2F)[C@H](C)[C@@H](O[C@@H]2O[C@H](C)C[C@H](N(C)C3CC3)[C@H]2O)[C@](C)(OC)C[C@@H](C)C(=O)[C@H](C)[C@@H](O)[C@]1(C)O gave an MIC of 16 µg/mL (≈ 21.3 µM). CC[C@H]1OC(=O)[C@H](C)[C@@H](OC(=O)Cc2ccccn2)[C@H](C)[C@@H](O[C@@H]2O[C@H](C)C[C@H](N(C)C3CC3)[C@H]2O)[C@](C)(OC)C[C@@H](C)C(=O)[C@H](C)[C@@H](O)[C@]1(C)O was tested, and the MIC was greater than 32 µg/mL. C#CCN(C)[C@H]1C[C@@H](C)O[C@@H](O[C@@H]2[C@@H](C)[C@H](OC(=O)Cc3ccccc3F)[C@@H](C)C(=O)O[C@H](CC)[C@@](C)(O)[C@H](O)[C@@H](C)C(=O)[C@H](C)C[C@@]2(C)OC)[C@@H]1O gave an MIC of 0.5 µg/mL (≈ 0.667 µM). CC[C@H]1OC(=O)[C@H](C)[C@@H](OC(=O)Cc2cccnc2)[C@H](C)[C@@H](O[C@@H]2O[C@H](C)C[C@H](N(C)CC)[C@H]2O)[C@](C)(OC)C[C@@H](C)C(=O)[C@H](C)[C@@H](O)[C@]1(C)O showed an MIC of 0.5 µg/mL (≈ 0.692 µM).

From ChEMBL document CHEMBL1933046, “Synthesis and antibacterial activity of a novel series of acylides active against community acquired respiratory pathogens” (2012)
